Source: patent publication US10820591B2, “Substituted sulfonyl amides for controlling animal pests” (Bayer Aktiengesellschaft, priority 2016, dated 2020)

Test system: Meloidogyne incognita
Experiment: Meloidogyne incognita test (sand, lettuce, gall formation)
Assay type: in vivo
Conditions: 20 ppm, after 14 days
Description: Meloidogyne incognita Test [table] To produce a suitable active compound preparation, 1 part by weight of active compound is mixed with the stated amount of solvent and the concentrate is diluted to the desired concentration with water. Vessels are filled with sand, active compound solution, an egg/larvae suspension of the southern root-knot nematode (Meloidogyne incognita) and lettuce seeds. The lettuce seeds germinate and the plants develop. The galls develop on the roots. After 14 days, the nematicidal efficacy in % is determined by the formation of galls. 100% means that no galls were found; 0% means that the number of galls on the treated plants corresponds to the untreated control.

Compound	nematicidal efficacy (formation of galls)
COc1ccc(Cl)c(S(=O)(=O)NC(=O)c2cn(-c3cc(Cl)cc(Cl)c3)cn2)c1 [I-217]	90%

Same assay, conditions: Meloidogyne incognita, 336 h, 20 ppm, after 14 days; read-out: nematicidal efficacy (formation of galls)

Compound	pest or weed control at 20 ppm
O=C(NS(=O)(=O)c1ccccc1)c1cn(-c2ccc(C(F)(F)F)cc2Cl)cn1 [I-194]	100%
O=C(NS(=O)(=O)c1ccccc1)c1cn(-c2cc(Cl)ccc2Cl)cn1 [I-195]	100%
O=C(NS(=O)(=O)c1ccccc1Cl)c1cn(-c2ccc(Cl)c(Cl)c2)cn1 [I-196]	100%
O=C(NS(=O)(=O)c1c(Cl)cccc1Cl)c1cn(-c2ccc(C(F)(F)F)cc2Cl)cn1 [I-198]	100%
O=C(NS(=O)(=O)c1ccccc1)c1cn(-c2ccc(Cl)cc2Cl)cn1 [I-199]	100%
O=C(NS(=O)(=O)c1ccccc1Cl)c1cn(-c2ccc(Cl)cc2Cl)cn1 [I-200]	100%
O=C(NS(=O)(=O)c1ccc(Cl)cc1)c1cn(-c2ccc(Cl)cc2Cl)cn1 [I-201]	80%
O=C(NS(=O)(=O)c1ccc(Cl)cc1)c1cn(-c2ccc(Cl)c(Cl)c2)cn1 [I-202]	70%
O=C(NS(=O)(=O)c1ccccc1Cl)c1cn(-c2cc(Cl)ccc2Cl)cn1 [I-203]	100%
O=C(NS(=O)(=O)c1ccc(Cl)cc1)c1cn(-c2cc(Cl)ccc2Cl)cn1 [I-204]	100%
O=C(NS(=O)(=O)c1c(Cl)cccc1Cl)c1cn(-c2cc(Cl)ccc2Cl)cn1 [I-205]	100%
O=C(NS(=O)(=O)c1c(Cl)cccc1Cl)c1cn(-c2ccc(Cl)cc2Cl)cn1 [I-206]	100%
O=C(NS(=O)(=O)c1cccc(Cl)c1)c1cn(-c2ccc(C(F)(F)F)cc2Cl)cn1 [I-207]	100%
O=C(NS(=O)(=O)c1ccc(Cl)cc1Cl)c1cn(-c2ccc(Cl)cc2Cl)cn1 [I-208]	100%
Cc1ccc(-n2cnc(C(=O)NS(=O)(=O)c3ccccc3)c2)cc1 [I-209]	90%
Cc1ccc(-n2cnc(C(=O)NS(=O)(=O)c3ccccc3Cl)c2)cc1 [I-210]	100%
COc1ccc(-n2cnc(C(=O)NS(=O)(=O)c3ccccc3)c2)cc1 [I-211]	100%
Cc1ccc(-n2cnc(C(=O)NS(=O)(=O)c3c(Cl)cccc3Cl)c2)cc1 [I-212]	90%
COc1ccc(Cl)c(S(=O)(=O)NC(=O)c2cn(-c3ccc(C)cc3)cn2)c1 [I-213]	90%
O=C(NS(=O)(=O)c1ccccc1Cl)c1cn(-c2ccc(F)cc2F)cn1 [I-215]	100%
COc1ccc(Cl)c(S(=O)(=O)NC(=O)c2cn(-c3ccc(Cl)cc3Cl)cn2)c1 [I-216]	90%
COc1ccc(Cl)c(S(=O)(=O)NC(=O)c2cn(-c3ccc(Cl)c(Cl)c3)cn2)c1 [I-218]	70%
COc1ccc(Cl)c(S(=O)(=O)NC(=O)c2cn(-c3ccc(C(F)(F)F)cc3Cl)cn2)c1 [I-219]	90%
O=C(NS(=O)(=O)c1ccccc1)c1cn(-c2ccccc2F)cn1 [I-221]	90%
O=C(NS(=O)(=O)c1c(F)cccc1F)c1cn(-c2cc(Cl)cc(Cl)c2)cn1 [I-222]	100%
O=C(NS(=O)(=O)c1c(F)cccc1F)c1cn(-c2ccc(C(F)(F)F)cc2Cl)cn1 [I-223]	100%

Compound	pest or weed control at 20 ppm
O=C(NS(=O)(=O)c1c(F)cccc1F)c1cn(-c2ccccc2OC(F)(F)F)cn1 [I-224]	90%
O=C(NS(=O)(=O)c1ccccc1Cl)c1cn(-c2ccccc2OC(F)(F)F)cn1 [I-225]	100%
O=C(NS(=O)(=O)c1c(Cl)cccc1Cl)c1cn(-c2ccccc2OC(F)(F)F)cn1 [I-226]	100%
COc1ccc(Cl)c(S(=O)(=O)NC(=O)c2cn(-c3ccccc3OC(F)(F)F)cn2)c1 [I-227]	100%
COc1ccc(Cl)c(S(=O)(=O)NC(=O)c2cn(-c3ccccc3F)cn2)c1 [I-228]	90%
O=C(NS(=O)(=O)c1ccccc1Cl)c1cn(-c2ccccc2F)cn1 [I-229]	100%
O=C(NS(=O)(=O)c1cc(Cl)ccc1Cl)c1cn(-c2cc(Cl)cc(Cl)c2)cn1 [I-230]	100%
COc1ccc(Cl)cc1S(=O)(=O)NC(=O)c1cn(-c2cc(Cl)ccc2Cl)cn1 [I-231]	100%
O=C(NS(=O)(=O)c1cc(Cl)ccc1Cl)c1cn(-c2ccccc2F)cn1 [I-232]	100%
O=C(NS(=O)(=O)c1cc(F)ccc1F)c1cn(-c2cc(Cl)ccc2Cl)cn1 [I-233]	100%
O=C(NS(=O)(=O)c1cc(F)ccc1F)c1cn(-c2cc(Cl)cc(Cl)c2)cn1 [I-234]	70%
O=C(NS(=O)(=O)c1cc(C(F)(F)F)ccc1Br)c1cn(-c2cc(Cl)cc(Cl)c2)cn1 [I-235]	90%
O=C(NS(=O)(=O)c1ccccc1)c1cn(-c2cc(F)cc(Cl)c2)cn1 [I-236]	90%
O=C(NS(=O)(=O)c1ccccc1)c1cn(-c2cc(F)cc(F)c2)cn1 [I-237]	90%
O=C(NS(=O)(=O)c1ccccc1Cl)c1cn(-c2cc(F)cc(C(F)(F)F)c2)cn1 [I-238]	90%
O=C(NS(=O)(=O)c1c(Cl)cccc1Cl)c1cn(-c2cc(F)cc(C(F)(F)F)c2)cn1 [I-239]	100%
O=C(NS(=O)(=O)c1ccccc1Cl)c1cn(-c2cc(F)cc(Cl)c2)cn1 [I-240]	100%
O=C(NS(=O)(=O)c1c(Cl)cccc1Cl)c1cn(-c2cc(F)cc(Cl)c2)cn1 [I-241]	90%
O=C(NS(=O)(=O)c1ccccc1Cl)c1cn(-c2cccc(Cl)c2Cl)cn1 [I-242]	100%
O=C(NS(=O)(=O)c1c(Cl)cccc1Cl)c1cn(-c2cccc(Cl)c2Cl)cn1 [I-243]	100%
O=C(NS(=O)(=O)c1ccccc1Cl)c1cn(-c2c(Cl)cccc2Cl)cn1 [I-244]	100%
O=C(NS(=O)(=O)c1c(Cl)cccc1Cl)c1cn(-c2c(Cl)cccc2Cl)cn1 [I-245]	100%
COc1ccc(Cl)c(S(=O)(=O)NC(=O)c2cn(-c3cccc(Cl)c3Cl)cn2)c1 [I-246]	100%
COc1ccc(Cl)c(S(=O)(=O)NC(=O)c2cn(-c3cc(F)cc(Cl)c3)cn2)c1 [I-247]	100%
O=C(NS(=O)(=O)c1c(F)cccc1F)c1cn(-c2cccc(Cl)c2Cl)cn1 [I-248]	100%
O=C(NS(=O)(=O)c1c(F)cccc1F)c1cn(-c2cc(F)cc(C(F)(F)F)c2)cn1 [I-249]	100%

Compound	pest or weed control at 20 ppm
COc1ccc(Cl)c(S(=O)(=O)NC(=O)c2cn(-c3c(Cl)cccc3Cl)cn2)c1 [I-251]	90%
Cc1nc(C(=O)NS(=O)(=O)c2ccccc2Cl)cn1-c1ccccc1 [I-252]	100%
Cc1nc(C(=O)NS(=O)(=O)c2ccccc2)cn1-c1ccc(Cl)cc1 [I-256]	100%
Cc1nc(C(=O)NS(=O)(=O)c2ccccc2Cl)cn1-c1ccc(Cl)cc1 [I-257]	90%
Cc1nc(C(=O)NS(=O)(=O)c2c(Cl)cccc2Cl)cn1-c1ccc(Cl)cc1 [I-258]	70%
COc1ccc(Cl)c(S(=O)(=O)NC(=O)c2cn(-c3ccc(Cl)cc3)c(C)n2)c1 [I-259]	100%
COc1ccc(Cl)c(S(=O)(=O)NC(=O)c2cn(-c3ccccc3F)c(C)n2)c1 [I-260]	70%
Cc1nc(C(=O)NS(=O)(=O)c2cccc(Cl)c2)cn1-c1ccc(Cl)cc1 [I-261]	100%
Cc1nc(C(=O)NS(=O)(=O)c2ccc(Cl)cc2)cn1-c1ccc(Cl)cc1 [I-262]	100%
COc1ccc(Cl)c(S(=O)(=O)NC(=O)c2cn(-c3cccc(Cl)c3Cl)c(C)n2)c1 [I-263]	90%
Cc1nc(C(=O)NS(=O)(=O)c2c(Cl)cccc2Cl)cn1-c1ccccc1Cl [I-265]	90%
Cc1nc(C(=O)NS(=O)(=O)c2c(Cl)cccc2Cl)cn1-c1cccc(Cl)c1Cl [I-267]	100%
Cc1nc(C(=O)NS(=O)(=O)c2ccccc2)cn1-c1ccccc1Cl [I-270]	90%
Cc1nc(C(=O)NS(=O)(=O)c2ccc(Cl)cc2)cn1-c1cccc(Cl)c1Cl [I-271]	100%
O=C(NS(=O)(=O)c1ccccc1)c1cn(-c2cc(Cl)cc(C(F)(F)F)c2)cn1 [I-272]	90%
O=C(NS(=O)(=O)c1ccccc1)c1cn(-c2cc(Br)cc(Br)c2)cn1 [I-273]	90%
Cc1nc(C(=O)NS(=O)(=O)c2c(Cl)cccc2Cl)cn1-c1cccc(C(F)(F)F)c1 [I-274]	90%
COc1ccc(Cl)c(S(=O)(=O)NC(=O)c2cn(-c3cccc(C(F)(F)F)c3)c(C)n2)c1 [I-275]	100%
O=C(NS(=O)(=O)c1ccccc1)c1cn(-c2cc(Br)cc(C(F)(F)F)c2)cn1 [I-276]	70%
O=C(NS(=O)(=O)c1ccccc1Cl)c1cn(-c2cc(Br)cc(C(F)(F)F)c2)cn1 [I-277]	70%
O=C(NS(=O)(=O)c1ccccc1Cl)c1cn(-c2cc(Cl)cc(C(F)(F)F)c2)cn1 [I-278]	90%
COc1ccc(Cl)c(S(=O)(=O)NC(=O)c2cn(-c3cc(Br)cc(C(F)(F)F)c3)cn2)c1 [I-279]	90%
COc1ccc(Cl)c(S(=O)(=O)NC(=O)c2cn(-c3cc(Cl)cc(C(F)(F)F)c3)cn2)c1 [I-280]	90%
COc1ccc(Cl)c(S(=O)(=O)NC(=O)c2cn(-c3cc(C)cc(C(F)(F)F)c3)cn2)c1 [I-281]	90%
